Assay [1] has as its system IgM. In words: In vivo inhibition of IgM production in TNP-KLH immunized mice. The note with it: 100 mg/kg/day subcutaneously, twice a day for 10 days, N=10. Details: species or system BDF1 mice. The procedure:
(§1) TNP-KLH (trinitrophenyl-keyhole-lymphet-hemocyanin) was prepared by the method as described in J. Immunol., 97:421-430, 1966 from KLH and trinitrobenzene sulfonic acid. A […] of TNP-KLH suspended in 0.2 ml of saline and 1 mg of aluminum hydroxide gel were injected into the peritoneal cavity of BDF1 mice (8 weeks old) for immunization. From the day of immunization onward, the compound of this invention listed in Table 5 was given subcutaneously to the same animal twice a day for 10 days (100 mg/kg/day, dissolved in 0.5% Tween 80 in saline, and N=10). To the control group, 0.5% Tween 80 in saline was given at the same time schedule (N=10). Ten days after immunization, blood was extracted from the heart, and the concentrations of IgE, IgG1 and IgM antibodies were determined by ELISA (Immunol. Lett., 23:251-256, 1990, and Eur. J. Immunol., 20:2499-2503, 1990). Inhibition (%) of the antibody production with respect to the control was calculated.

Assay [2] concerns leukotrien B4 (LTB4) production. Kind of assay: Inhibition of leukotrien B4 (LTB4) production in RBL-1 basophils. The class given is cell-based. As to conditions: Rattus norvegicus; RBL-1 cells, calcium ionophore A23187. The procedure:
The basophils from rats of RBL-1 line (Dainippon Pharmaceutical Co.) cultured on DMEM (Dulbecco's modified Eagle medium) containing 10% FCS suspended in 10 mM HEPES-NaOH buffer (pH 7.4), 90 mM NaCl, 3.7 mM KCl, 0.9 mM CaCl2, 5.6mM glucose, and the compound of this invention listed in Table 8 as a test drug, to give a suspension of a density of 2×10^6 cells/ml. The suspension was allowed to stand at 37 for 5 minutes, and calcium ionophores A23187 were added thereto in such a manner that the concentration of […] was obtained in the end. The reaction was allowed to proceed at 37 for 10 minutes, and the supernatant was sampled for the ELISA assay (Cayman Chemical, Catalog No. 520111, and J. Immunol., 119:618-622, 1977) of leukotrien B4 (LTB4). IC50 of a given compound of this invention for inhibition of leukotrien production was calculated relative to the production of LTB4 when the compound was not coexistent.

Assay [3] concerns human basophils. Kind of assay: Inhibition of histamine release from human basophils. The class given is cell-based. The arrangement: dose or concentration left out as unconfirmed. The procedure:
To human heparinized peripheral blood was added 1/10 volume of 6% Dextran 500 in saline, and the mixture was allowed to stand at room temperature for 1 hour, to isolate a plasma layer containing leukocytes. The leukocytes were separated by centrifugation, washed with PIPE-A (119 mM NaCl, 5 mM KCl, 25 mM PIPES, 40 mM NaOH, 5.6 mM glucose, and 0.03% human serum albumin), and suspended in PIPES-ACM (PIPES A, 1 mM CaCl2 and 0.4 mM MgCl2) to give a cell suspension of a density of 4×10^6 cells /ml. To this cell suspension was added the compound of this invention listed in Table 7 as a test drug (0.1 M solution of the compound in DMSO was diluted with PIPES-ACM to give a […]), or the cell suspension was left untouched. After 30 second, calcium ionophore A23187 ([…]) was added. The reaction was allowed to proceed at 37 for 45 minutes. The resulting mixture was centrifuged to isolate a supernatant. Histamine release in the supernatant was determined by the fluorescent method. Inhibitory effect (%) of a given compound of this invention on histamine release was calculated relative to the histamine release when the compound was not coexistent(refer to Allergy, 37:313-321, 1988).

In assay [4] the test system is IgE. In words: In vivo inhibition of IgE production in TNP-KLH immunized mice. The arrangement: species or system BDF1 mice. The note with it: 100 mg/kg/day subcutaneously, twice a day for 10 days, N=10. The procedure: as §1
Assay [5] concerns IgG1. Kind of assay: In vivo inhibition of IgG1 production in TNP-KLH immunized mice. The arrangement: species or system BDF1 mice. As to conditions: 100 mg/kg/day subcutaneously, twice a day for 10 days, N=10. The procedure: as §1

Structures are written as SMILES.

What is called IC50 is the concentration that gives 50% inhibition. In the case of `O=C(Nc1ccccc1C(=O)O)c1ccc(Oc2ccc3ccccc3c2)cc1` [Compound No. 1104, 2-(4-(2-naphtyloxy)benzamide)benzoic Acid], the “Inhibition of antibody production (%) IgM” value in assay [1] is 56.1%. In addition, the IC50 in assay [2] was 210 nM. Moreover, the “Inhibition of histamine release (%)” value in assay [3] was found to be 20.4%. Besides, in assay [4], the “Inhibition of antibody production (%) IgE” value was 60.4%. For the same compound, the “Inhibition of antibody production (%) IgG1” value in assay [5] is reported as 24.4%.
The matching figures for `O=C(Cc1ccc(Oc2ccc3ccccc3c2)cc1)Nc1ccccc1C(=O)O` [Compound No. 1126, 2-(4-(2-naphtyloxy)phenylacetamide)benzoic acid]: 70.2%, 600 nM, 55.8%, 78.9% and 46.8%.

These data come from patent US5945450A, “Naphthalene derivative” (Teijin Limited, priority 1994, dated 1999).
